Measured values taken from ChEMBL document CHEMBL4507319 (2021).

How the values were obtained:
[1] = target: Histamine H2 receptor (Homo sapiens) (UniProt P25021); conditions: Compound concentration 10.0 uM
[2] = target: Activin receptor type-1-like (Homo sapiens) (UniProt P37023); experiment: ALK1(h) Eurofins kinase panel; conditions: Compound concentration 1.0 uM
[3] = target: T1, Activin receptor type-1 (Homo sapiens) (UniProt Q04771); experiment: ALK2(h) Eurofins kinase panel; conditions: Compound concentration 1.0 uM
T1 sequence (whole entry): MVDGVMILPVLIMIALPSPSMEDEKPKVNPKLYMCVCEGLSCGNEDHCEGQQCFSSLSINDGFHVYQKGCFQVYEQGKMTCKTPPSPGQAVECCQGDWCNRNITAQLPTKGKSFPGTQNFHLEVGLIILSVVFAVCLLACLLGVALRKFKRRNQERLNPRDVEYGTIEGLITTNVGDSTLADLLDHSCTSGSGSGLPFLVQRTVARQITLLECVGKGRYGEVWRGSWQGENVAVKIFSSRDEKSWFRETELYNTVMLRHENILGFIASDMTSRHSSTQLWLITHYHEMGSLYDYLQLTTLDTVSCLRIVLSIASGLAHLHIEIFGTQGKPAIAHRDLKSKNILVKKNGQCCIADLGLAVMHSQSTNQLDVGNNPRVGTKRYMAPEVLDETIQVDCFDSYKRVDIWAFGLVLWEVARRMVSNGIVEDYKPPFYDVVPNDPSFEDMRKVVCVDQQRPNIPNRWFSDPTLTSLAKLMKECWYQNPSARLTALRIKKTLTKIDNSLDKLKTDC

[4] = target: T2, Bone morphogenetic protein receptor type-2 (Homo sapiens) (UniProt Q13873); experiment: BMPR2(h) Eurofins kinase panel; conditions: Compound concentration 1.0 uM
T2 sequence (whole entry): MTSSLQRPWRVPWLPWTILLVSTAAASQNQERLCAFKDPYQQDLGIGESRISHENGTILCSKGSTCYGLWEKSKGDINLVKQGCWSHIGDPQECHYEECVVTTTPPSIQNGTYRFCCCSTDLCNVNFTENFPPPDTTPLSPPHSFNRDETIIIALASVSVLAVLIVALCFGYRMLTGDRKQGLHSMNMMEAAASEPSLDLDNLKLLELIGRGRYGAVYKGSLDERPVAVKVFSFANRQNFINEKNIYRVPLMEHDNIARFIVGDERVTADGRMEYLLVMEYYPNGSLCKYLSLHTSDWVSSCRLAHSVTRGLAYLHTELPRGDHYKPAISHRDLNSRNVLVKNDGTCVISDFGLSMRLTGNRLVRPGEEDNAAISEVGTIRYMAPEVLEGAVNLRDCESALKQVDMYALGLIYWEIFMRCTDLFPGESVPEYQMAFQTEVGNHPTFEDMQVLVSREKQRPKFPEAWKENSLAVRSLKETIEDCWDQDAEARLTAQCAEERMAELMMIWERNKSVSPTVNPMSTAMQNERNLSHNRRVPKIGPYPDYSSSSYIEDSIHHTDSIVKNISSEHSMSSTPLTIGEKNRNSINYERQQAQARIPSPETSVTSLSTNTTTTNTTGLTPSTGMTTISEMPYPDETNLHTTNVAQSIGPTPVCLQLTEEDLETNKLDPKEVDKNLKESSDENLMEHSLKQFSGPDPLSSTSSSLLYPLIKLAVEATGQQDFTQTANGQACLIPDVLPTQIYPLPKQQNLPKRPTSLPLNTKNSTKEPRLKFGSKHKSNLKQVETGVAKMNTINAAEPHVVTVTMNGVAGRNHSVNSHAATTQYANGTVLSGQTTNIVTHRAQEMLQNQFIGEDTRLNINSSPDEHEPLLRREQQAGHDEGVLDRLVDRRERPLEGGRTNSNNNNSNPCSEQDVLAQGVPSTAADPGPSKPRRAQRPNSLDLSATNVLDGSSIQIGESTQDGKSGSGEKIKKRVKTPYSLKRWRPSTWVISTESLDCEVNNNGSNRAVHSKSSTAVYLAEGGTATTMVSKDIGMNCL

[5] = target: Calcium/calmodulin-dependent protein kinase type 1 (Homo sapiens) (UniProt Q14012); experiment: CaMKI(h) Eurofins kinase panel; conditions: Compound concentration 1.0 uM
[6] = target: Calcium/calmodulin-dependent protein kinase type II subunit gamma (Homo sapiens) (UniProt Q13555); experiment: CaMKIIgamma(h) Eurofins kinase panel; conditions: Compound concentration 1.0 uM
[7] = target: CDK7/Cyclin H/MNAT1 (Homo sapiens) (UniProt P51946+P50613+P51948); experiment: CDK7/cyclinH/MAT1(h) Eurofins kinase panel; type: protein-complex assay; conditions: Compound concentration 1.0 uM
[8] = target: Dual specificity protein kinase CLK4 (Homo sapiens) (UniProt Q9HAZ1); experiment: CLK4(h) Eurofins kinase panel; conditions: Compound concentration 1.0 uM
[9] = target: Mitogen-activated protein kinase 1 (Homo sapiens) (UniProt P28482); experiment: MAPK2(h) Eurofins kinase panel; conditions: Compound concentration 1.0 uM
[10] = target: T3, NUAK family SNF1-like kinase 2 (Homo sapiens) (UniProt Q9H093); experiment: NUAK2(h) Eurofins kinase panel; conditions: Compound concentration 1.0 uM
T3 sequence (whole entry): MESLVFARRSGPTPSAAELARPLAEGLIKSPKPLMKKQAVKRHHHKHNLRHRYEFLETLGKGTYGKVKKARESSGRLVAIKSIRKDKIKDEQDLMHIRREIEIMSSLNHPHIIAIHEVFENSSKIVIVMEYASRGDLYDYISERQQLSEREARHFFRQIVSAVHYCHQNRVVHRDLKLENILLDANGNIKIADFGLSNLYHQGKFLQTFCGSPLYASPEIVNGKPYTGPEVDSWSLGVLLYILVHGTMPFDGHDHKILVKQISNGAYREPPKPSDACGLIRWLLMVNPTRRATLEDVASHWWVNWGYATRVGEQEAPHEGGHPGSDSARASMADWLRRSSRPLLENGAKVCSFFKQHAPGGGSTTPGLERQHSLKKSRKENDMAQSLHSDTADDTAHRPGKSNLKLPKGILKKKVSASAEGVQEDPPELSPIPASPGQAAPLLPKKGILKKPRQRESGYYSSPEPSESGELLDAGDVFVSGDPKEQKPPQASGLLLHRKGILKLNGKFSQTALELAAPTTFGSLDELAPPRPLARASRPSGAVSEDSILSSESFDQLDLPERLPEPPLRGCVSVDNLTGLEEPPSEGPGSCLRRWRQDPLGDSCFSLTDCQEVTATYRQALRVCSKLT

IMR-5/75 = experiment: IMR-5/75 cell line Proliferation assay; type: functional, Homo sapiens; conditions: time 6 day

Chain of Dual specificity protein kinase CLK4 (Homo sapiens) (Q9HAZ1 whole entry, looked up): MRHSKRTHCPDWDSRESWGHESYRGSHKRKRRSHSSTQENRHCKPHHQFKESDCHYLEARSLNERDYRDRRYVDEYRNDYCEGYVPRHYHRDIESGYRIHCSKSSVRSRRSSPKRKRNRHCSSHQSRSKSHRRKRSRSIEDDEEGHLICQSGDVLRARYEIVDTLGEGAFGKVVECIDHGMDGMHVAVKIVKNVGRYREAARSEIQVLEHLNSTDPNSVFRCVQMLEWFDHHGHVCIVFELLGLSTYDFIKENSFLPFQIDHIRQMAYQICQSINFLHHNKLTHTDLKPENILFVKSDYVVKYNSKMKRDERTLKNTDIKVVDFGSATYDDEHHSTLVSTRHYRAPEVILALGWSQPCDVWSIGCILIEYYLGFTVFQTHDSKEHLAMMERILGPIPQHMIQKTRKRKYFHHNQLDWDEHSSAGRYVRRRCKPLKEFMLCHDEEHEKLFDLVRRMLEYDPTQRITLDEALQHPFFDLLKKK
Chain of Activin receptor type-1-like (Homo sapiens) (P37023 whole entry): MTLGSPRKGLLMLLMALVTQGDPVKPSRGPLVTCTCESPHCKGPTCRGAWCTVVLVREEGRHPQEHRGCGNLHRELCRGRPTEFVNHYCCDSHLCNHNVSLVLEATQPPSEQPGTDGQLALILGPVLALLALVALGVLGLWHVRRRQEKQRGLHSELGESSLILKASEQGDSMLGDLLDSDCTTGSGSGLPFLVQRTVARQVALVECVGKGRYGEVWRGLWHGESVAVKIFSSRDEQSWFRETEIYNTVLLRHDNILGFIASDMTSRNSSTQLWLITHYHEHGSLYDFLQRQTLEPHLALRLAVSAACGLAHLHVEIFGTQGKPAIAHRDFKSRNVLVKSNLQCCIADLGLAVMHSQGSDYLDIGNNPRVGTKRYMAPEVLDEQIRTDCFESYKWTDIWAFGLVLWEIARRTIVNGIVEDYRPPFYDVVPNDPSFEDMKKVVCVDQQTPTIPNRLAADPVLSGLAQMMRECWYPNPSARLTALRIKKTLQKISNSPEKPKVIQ
Chain of Calcium/calmodulin-dependent protein kinase type 1 (Homo sapiens) (Q14012 whole entry, looked up): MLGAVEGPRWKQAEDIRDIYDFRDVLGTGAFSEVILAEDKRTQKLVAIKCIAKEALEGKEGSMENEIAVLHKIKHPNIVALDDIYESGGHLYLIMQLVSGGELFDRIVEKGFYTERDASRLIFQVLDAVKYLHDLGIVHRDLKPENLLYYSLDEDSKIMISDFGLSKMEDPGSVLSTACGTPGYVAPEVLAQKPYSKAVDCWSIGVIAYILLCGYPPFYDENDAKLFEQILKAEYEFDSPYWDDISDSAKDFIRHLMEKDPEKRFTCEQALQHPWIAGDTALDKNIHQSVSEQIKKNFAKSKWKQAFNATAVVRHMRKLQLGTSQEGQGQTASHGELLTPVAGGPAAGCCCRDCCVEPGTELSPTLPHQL
Chain of Calcium/calmodulin-dependent protein kinase type II subunit gamma (Homo sapiens) (Q13555 whole entry): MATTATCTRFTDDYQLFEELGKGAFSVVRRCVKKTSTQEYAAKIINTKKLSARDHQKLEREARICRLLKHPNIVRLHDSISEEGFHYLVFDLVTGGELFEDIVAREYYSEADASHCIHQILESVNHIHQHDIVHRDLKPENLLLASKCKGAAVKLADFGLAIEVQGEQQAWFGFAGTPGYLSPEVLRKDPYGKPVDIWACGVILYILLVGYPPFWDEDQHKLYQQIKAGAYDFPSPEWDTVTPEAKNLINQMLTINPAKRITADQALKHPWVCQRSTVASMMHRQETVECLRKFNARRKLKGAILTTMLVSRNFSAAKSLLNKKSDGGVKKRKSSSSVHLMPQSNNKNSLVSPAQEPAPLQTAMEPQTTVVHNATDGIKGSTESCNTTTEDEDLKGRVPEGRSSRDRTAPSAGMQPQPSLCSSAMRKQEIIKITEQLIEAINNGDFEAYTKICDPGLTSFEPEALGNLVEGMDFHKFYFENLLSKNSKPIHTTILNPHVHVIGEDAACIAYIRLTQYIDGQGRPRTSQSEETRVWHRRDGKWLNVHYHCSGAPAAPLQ
Chain of Mitogen-activated protein kinase 1 (Homo sapiens) (P28482 whole entry): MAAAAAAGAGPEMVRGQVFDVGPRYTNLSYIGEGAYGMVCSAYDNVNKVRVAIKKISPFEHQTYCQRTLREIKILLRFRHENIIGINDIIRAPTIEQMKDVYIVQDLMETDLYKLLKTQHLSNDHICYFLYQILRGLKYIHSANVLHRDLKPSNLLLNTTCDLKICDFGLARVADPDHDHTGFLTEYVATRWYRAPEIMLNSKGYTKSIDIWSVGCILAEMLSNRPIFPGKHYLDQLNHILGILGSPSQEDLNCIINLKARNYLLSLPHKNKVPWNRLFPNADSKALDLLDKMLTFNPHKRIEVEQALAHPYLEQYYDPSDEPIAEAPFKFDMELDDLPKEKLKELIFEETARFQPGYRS
Chain of Histamine H2 receptor (Homo sapiens) (P25021 whole entry): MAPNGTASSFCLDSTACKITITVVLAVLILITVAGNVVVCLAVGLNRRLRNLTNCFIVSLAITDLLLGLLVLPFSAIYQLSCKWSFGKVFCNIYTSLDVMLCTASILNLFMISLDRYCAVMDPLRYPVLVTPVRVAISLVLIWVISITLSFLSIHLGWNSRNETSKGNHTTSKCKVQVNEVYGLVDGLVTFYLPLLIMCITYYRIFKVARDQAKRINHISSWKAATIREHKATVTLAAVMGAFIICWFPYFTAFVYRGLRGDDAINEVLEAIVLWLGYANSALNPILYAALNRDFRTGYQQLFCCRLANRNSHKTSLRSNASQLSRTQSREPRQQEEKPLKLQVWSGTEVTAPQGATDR

| Structure (SMILES) | inhibition [1] [%] | % residual kinase activity [2] [%] | % residual kinase activity [3] [%] | % residual kinase activity [4] [%] | % residual kinase activity [5] [%] | % residual kinase activity [6] [%] | % residual kinase activity [7] [%] | % residual kinase activity [8] [%] | % residual kinase activity [9] [%] | % residual kinase activity [10] [%] | Cell Proliferation IC50 (IMR-5/75) [µM] |
| --- | --- | --- | --- | --- | --- | --- | --- | --- | --- | --- | --- |
| CC1=C(C#N)C(c2ccc3c(c2)c(NC(=O)c2ccccc2C)nn3C)C(C#N)=C(C)N1 [BAY-974] | 8.7 | – | – | – | – | – | – | – | – | – | – |
| CCc1ccccc1C(=O)Nc1n[nH]c2c(C)c(F)c(C3C(C#N)=C(C)N(C)C(C)=C3C#N)cc12 [BAY-3827] | – | 138 | 109 | 104 | 93 | 79 | 66 | 104 | 102 | 45 | 21.3 |
